{"source": "ChEMBL document CHEMBL3217743", "about": "“Reduction of acyl glucuronidation in a series of acidic 11-hydroxysteroid dehydrogenase type 1 (11-HSD1) inhibitors: the discovery of AZD6925” (Medchemcomm, 2012)", "key": {"[1]": {"experiment": "Fraction unbound in human plasma by equilibrium dialysis technique", "type": "ADME, cell-free"}, "[2]": {"experiment": "Apparent permeability from apical to basolateral side in MDCK cells at 10 uM", "type": "ADME, cell-based, Canis lupus familiaris", "conditions": "dog"}, "[3]": {"experiment": "Apparent permeability from basolateral to apical side in MDCK cells at 10 uM", "type": "ADME, cell-based, Canis lupus familiaris", "conditions": "dog"}, "[4]": {"experiment": "Plasma clearance in dog at 1 to 3 mg/kg", "type": "ADME, organism-based, Canis lupus familiaris", "parameters": "dose 1-3 mg/kg"}, "[5]": {"experiment": "Volume of distribution at steady state in rat at 1 to 3 mg/kg", "type": "ADME, organism-based", "parameters": "dose 1-3 mg/kg", "conditions": "in vivo, read-out: Vdss"}, "[6]": {"experiment": "Half life in mouse at 1 to 3 mg/kg, iv", "type": "ADME, organism-based", "parameters": "dose 1-3 mg/kg, route intravenous", "conditions": "in vivo"}, "[7]": {"experiment": "Half life in rat at 1 to 3 mg/kg, iv", "type": "ADME, organism-based", "parameters": "dose 1-3 mg/kg, route intravenous", "conditions": "in vivo"}, "[8]": {"experiment": "Half life in rat at 1 to 3 mg/kg, po", "type": "ADME, organism-based", "parameters": "dose 1-3 mg/kg, route oral", "conditions": "in vivo"}, "[9]": {"experiment": "Half life in dog at 1 to 3 mg/kg, po", "type": "ADME, organism-based, Canis lupus familiaris", "parameters": "dose 1-3 mg/kg, route oral", "conditions": "in vivo"}, "[10]": {"experiment": "Drug metabolism in dog hepatocytes assessed as compound remaining by LC-MS/MS analysis", "type": "ADME, cell-based, Canis lupus familiaris, Hepatocyte"}, "[11]": {"experiment": "Drug metabolism in human hepatocytes assessed as compound remaining by LC-MS/MS analysis", "type": "ADME, cell-based, Hepatocyte"}, "[12]": {"experiment": "Drug excretion in bile duct cannulated rat urine assessed as compound remaining by HPLC analysis", "type": "ADME, tissue-based", "conditions": "read-out: Stability"}, "[13]": {"biological_target": "T1, 17-beta-hydroxysteroid dehydrogenase type 1 (Homo sapiens) (UniProt P14061)", "T1 sequence (whole entry)": "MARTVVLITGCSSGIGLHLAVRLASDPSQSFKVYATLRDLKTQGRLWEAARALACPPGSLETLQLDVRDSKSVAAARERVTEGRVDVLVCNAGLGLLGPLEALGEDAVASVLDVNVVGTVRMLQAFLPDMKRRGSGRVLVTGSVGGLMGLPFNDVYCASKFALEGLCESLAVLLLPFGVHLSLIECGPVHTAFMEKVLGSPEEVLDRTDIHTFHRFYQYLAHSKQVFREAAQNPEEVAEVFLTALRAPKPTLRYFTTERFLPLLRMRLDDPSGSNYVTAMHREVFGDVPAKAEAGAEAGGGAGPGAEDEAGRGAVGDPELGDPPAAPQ", "experiment": "Inhibition of recombinant 17beta-HSD1 (unknown origin) assessed as conversion of estrone to estradiol at 10 uM after 20 mins by scintillation counting analysis relative to control"}, "[14]": {"biological_target": "T2, 17-beta-hydroxysteroid dehydrogenase type 3 (Homo sapiens, UniProt P37058)", "T2 sequence (P37058 whole entry)": "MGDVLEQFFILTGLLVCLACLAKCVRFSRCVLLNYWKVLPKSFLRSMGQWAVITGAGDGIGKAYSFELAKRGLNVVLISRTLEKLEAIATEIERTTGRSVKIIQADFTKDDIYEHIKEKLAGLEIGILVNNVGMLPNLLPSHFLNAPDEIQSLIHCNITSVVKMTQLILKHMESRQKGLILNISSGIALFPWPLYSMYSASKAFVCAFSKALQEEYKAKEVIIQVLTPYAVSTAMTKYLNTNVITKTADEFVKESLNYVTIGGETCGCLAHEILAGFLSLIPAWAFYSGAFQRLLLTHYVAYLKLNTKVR", "experiment": "Inhibition of recombinant 17beta-HSD3 (unknown origin) assessed as conversion of androstenedione to testosterone after 90 mins by scintillation counting analysis"}, "[15]": {"biological_target": "T3, Mineralocorticoid receptor (Homo sapiens) (UniProt P08235)", "T3 sequence (whole entry)": "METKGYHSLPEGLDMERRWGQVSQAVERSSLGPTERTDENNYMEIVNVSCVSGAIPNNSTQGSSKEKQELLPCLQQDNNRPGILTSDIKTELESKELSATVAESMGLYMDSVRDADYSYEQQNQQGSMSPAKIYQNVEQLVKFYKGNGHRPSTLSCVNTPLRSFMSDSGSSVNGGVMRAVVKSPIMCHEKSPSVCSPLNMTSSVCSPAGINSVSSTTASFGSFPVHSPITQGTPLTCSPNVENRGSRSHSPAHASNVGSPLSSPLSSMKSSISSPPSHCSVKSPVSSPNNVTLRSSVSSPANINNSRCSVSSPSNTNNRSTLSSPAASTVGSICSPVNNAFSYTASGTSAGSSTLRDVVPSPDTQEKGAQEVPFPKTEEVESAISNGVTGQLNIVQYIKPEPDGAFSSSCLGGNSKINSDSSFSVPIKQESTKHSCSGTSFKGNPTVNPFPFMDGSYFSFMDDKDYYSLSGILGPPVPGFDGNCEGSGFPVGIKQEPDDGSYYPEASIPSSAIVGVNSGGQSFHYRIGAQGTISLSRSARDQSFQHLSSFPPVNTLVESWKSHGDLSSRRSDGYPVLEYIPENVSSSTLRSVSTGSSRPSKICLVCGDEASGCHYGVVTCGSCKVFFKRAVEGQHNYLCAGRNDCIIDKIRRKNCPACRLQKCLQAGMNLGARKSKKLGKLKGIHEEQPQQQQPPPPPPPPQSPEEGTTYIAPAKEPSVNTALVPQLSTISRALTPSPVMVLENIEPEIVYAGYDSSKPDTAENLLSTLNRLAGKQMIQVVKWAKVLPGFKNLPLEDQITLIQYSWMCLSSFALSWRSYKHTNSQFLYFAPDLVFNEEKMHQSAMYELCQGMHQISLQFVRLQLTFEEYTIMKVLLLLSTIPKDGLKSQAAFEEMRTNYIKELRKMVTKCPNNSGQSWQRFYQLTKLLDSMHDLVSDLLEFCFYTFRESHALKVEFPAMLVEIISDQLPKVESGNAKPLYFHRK", "experiment": "Activity at mineralocorticoid receptor (unknown origin)"}, "[16]": {"test_system": "L5178Y", "experiment": "Mutagenicity in mouse L5178Y cells by mouse lymphoma assay", "type": "toxicity, cell-based"}, "[17]": {"biological_target": "Voltage-gated inwardly rectifying potassium channel KCNH2 (Homo sapiens, UniProt Q12809)", "sequence (Q12809 whole entry)": "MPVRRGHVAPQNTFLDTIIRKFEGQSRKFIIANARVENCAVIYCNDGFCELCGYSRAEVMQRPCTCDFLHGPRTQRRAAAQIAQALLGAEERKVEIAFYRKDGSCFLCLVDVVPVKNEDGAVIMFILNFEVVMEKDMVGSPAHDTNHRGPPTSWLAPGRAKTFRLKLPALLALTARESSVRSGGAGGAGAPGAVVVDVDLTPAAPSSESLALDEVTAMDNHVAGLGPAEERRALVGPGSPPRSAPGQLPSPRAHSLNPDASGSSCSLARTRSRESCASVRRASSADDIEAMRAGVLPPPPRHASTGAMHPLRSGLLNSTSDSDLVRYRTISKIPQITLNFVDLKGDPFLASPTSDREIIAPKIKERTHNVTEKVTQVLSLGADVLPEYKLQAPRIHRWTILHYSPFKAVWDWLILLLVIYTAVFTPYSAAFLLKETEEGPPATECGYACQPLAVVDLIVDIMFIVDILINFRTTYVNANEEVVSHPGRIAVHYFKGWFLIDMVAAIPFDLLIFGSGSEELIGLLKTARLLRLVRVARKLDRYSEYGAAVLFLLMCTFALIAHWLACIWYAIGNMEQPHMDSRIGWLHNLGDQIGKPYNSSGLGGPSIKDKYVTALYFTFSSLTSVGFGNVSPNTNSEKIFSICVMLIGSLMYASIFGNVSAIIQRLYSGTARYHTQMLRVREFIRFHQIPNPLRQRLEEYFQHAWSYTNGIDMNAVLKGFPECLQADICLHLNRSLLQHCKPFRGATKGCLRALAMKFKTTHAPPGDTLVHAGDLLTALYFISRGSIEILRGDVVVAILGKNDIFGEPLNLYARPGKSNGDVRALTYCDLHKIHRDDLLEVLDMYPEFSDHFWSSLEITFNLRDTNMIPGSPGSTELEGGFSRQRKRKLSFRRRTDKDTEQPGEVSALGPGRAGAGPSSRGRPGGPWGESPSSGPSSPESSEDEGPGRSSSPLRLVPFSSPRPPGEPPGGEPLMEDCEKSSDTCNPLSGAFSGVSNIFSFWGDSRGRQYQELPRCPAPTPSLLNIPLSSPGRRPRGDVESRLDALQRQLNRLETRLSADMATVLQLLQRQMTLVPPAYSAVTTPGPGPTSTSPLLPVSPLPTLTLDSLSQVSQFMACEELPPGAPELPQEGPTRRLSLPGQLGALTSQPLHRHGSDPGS", "experiment": "Inhibition of human ERG"}, "[18]": {"biological_target": "11-beta-hydroxysteroid dehydrogenase 1 (Rattus norvegicus, UniProt P16232)", "sequence (P16232 whole entry)": "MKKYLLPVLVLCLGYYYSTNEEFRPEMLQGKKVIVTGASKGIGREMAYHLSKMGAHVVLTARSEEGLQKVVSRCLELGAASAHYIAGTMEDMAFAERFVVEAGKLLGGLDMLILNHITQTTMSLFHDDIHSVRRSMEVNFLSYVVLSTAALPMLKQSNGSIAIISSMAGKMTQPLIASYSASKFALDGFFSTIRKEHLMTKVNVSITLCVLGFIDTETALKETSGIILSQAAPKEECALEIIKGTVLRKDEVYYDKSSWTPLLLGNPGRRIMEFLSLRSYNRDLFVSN", "experiment": "Inhibition of N-terminal 6-His-tagged rat full length 11beta-HSD1 assessed as conversion of cortisone to cortisol after 25 mins by HTRF assay"}, "[19]": {"experiment": "Inhibition of N-terminal 6-His-tagged cynomolgus monkey full length 11beta-HSD1 assessed as conversion of cortisone to cortisol after 25 mins by HTRF assay", "parameters": "species or system Macaca fascicularis"}, "[20]": {"biological_target": "11-beta-hydroxysteroid dehydrogenase 1 (Homo sapiens, UniProt P28845)", "sequence (P28845 whole entry)": "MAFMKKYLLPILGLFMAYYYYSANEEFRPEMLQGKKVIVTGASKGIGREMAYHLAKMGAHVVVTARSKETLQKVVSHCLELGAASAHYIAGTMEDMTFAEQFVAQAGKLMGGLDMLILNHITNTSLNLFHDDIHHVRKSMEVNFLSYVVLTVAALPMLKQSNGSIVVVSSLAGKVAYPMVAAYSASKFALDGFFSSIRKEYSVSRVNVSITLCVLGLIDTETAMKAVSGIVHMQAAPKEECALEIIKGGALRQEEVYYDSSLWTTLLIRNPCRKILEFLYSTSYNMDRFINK", "experiment": "Inhibition of 11beta-HSD1 in human adipocytes assessed as conversion of [3H]-cortisone to [3H]-cortisol by scintillation counting analysis", "type": "cell-based"}, "[21]": {"test_system": "Mus musculus", "experiment": "Ex vivo inhibition of 11beta-HSD1-mediated conversion of [3H]-cortisone to [3H]-cortisol in C57Bl6J mouse adipose tissue at 30 mg/kg, po after 1 hr by scintillation counting analysis relative to control", "type": "functional"}, "[22]": {"test_system": "Mus musculus", "experiment": "Ex vivo inhibition of 11beta-HSD1-mediated conversion of [3H]-cortisone to [3H]-cortisol in C57Bl6J mouse liver at 30 mg/kg, po by scintillation counting analysis", "type": "functional, organism-based", "parameters": "dose 30 mg/kg"}, "[23]": {"experiment": "Clearance in rat hepatocytes measured per 10^6 cells", "type": "ADME, cell-based, Hepatocyte", "conditions": "read-out: CLH"}, "[24]": {"biological_target": "CYP2C19 (Homo sapiens, UniProt P33261)", "sequence (P33261 whole entry)": "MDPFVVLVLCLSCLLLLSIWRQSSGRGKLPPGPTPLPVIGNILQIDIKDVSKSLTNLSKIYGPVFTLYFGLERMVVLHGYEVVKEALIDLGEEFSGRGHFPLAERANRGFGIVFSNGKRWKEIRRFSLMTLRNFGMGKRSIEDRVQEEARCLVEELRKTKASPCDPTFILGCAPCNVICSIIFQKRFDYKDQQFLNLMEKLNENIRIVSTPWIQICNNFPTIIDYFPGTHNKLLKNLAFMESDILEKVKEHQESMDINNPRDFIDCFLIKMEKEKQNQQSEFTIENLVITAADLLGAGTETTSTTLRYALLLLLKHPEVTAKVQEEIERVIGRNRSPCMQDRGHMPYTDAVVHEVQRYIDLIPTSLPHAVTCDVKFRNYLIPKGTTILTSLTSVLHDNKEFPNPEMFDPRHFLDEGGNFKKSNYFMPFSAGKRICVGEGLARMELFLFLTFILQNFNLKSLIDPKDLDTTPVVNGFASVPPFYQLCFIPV", "experiment": "Inhibition of CYP2C19 (unknown origin) at 10 uM relative to control", "type": "ADME"}, "[25]": {"biological_target": "CYP3A4 (Homo sapiens, UniProt P08684)", "sequence (P08684 whole entry)": "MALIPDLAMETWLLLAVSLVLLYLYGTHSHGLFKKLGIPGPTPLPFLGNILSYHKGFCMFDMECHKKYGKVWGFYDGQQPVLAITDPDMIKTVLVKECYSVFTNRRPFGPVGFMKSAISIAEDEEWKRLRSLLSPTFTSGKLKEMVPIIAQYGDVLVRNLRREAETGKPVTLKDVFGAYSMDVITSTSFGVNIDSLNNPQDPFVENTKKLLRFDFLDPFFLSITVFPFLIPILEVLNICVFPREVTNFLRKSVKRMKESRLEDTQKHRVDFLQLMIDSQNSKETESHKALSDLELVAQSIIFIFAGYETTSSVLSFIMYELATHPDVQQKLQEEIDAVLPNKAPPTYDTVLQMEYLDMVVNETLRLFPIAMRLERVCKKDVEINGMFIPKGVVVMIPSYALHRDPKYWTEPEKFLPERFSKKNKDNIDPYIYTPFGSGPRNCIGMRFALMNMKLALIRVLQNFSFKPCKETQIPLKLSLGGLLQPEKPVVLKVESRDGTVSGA", "experiment": "Inhibition of CYP3A4 (unknown origin) at 10 uM relative to control", "type": "ADME"}}, "note": "Activity calls are given as the source filed them. The calls are words filed in the database; no cut-off is given here.", "data": [{"smiles": "CSc1nc(N2C[C@@H]3[C@H](C2)[C@H]3C(=O)O)ccc1C(=O)NC12CC3CC(CC(C3)C1)C2", "values": [{"measurement": "fraction unbound", "setting": "[1]", "value": 0.011}, {"measurement": "Papp A→B at 10 µM", "setting": "[2]", "value": 21, "unit": "×10⁻⁶ cm/s"}, {"measurement": "Papp B→A at 10 µM", "setting": "[3]", "value": 13, "unit": "×10⁻⁶ cm/s"}, {"measurement": "clearance", "setting": "[4]", "value": 1, "unit": "mL/min/kg"}, {"measurement": "Vd", "setting": "[5]", "value": 0.9, "unit": "L/kg"}, {"measurement": "half-life", "setting": "[6]", "value": 2.5, "unit": "h"}, {"measurement": "half-life", "setting": "[7]", "value": 4.3, "unit": "h"}, {"measurement": "half-life", "setting": "[8]", "value": 4.3, "unit": "h"}, {"measurement": "half-life", "setting": "[9]", "value": 27, "unit": "h"}, {"measurement": "Stability", "setting": "[10]", "value": 92, "unit": "%"}, {"measurement": "Stability", "setting": "[11]", "value": 94, "unit": "%"}, {"measurement": "dose excreted", "setting": "[12]", "value": 7.6, "unit": "%"}, {"measurement": "inhibition", "setting": "[13]", "value": 20, "unit": "%"}, {"measurement": "IC50", "setting": "[14]", "value": 25000, "unit": "nM"}, {"measurement": "Activity", "setting": "[15]", "value": "inactive"}, {"measurement": "Activity", "setting": "[16]", "value": "Non-toxic"}, {"measurement": "IC50", "setting": "[17]", "value": "> 30000", "unit": "nM"}, {"measurement": "IC50", "setting": "[18]", "value": 82, "unit": "nM"}, {"measurement": "IC50", "setting": "[19]", "value": 20, "unit": "nM"}, {"measurement": "IC50", "setting": "[20]", "value": 4, "unit": "nM"}, {"measurement": "inhibition in vivo at 30 mg/kg", "setting": "[21]", "value": 50, "unit": "%"}, {"measurement": "inhibition", "setting": "[22]", "value": "Active"}, {"measurement": "hepatocyte CLint", "setting": "[23]", "value": 6, "unit": "µL/min/1e6 cells"}, {"measurement": "inhibition at 10 µM", "setting": "[24]", "value": "< 25", "unit": "%"}, {"measurement": "inhibition at 10 µM", "setting": "[25]", "value": "< 25", "unit": "%"}]}]}
